Consider 25 molecules from patent publication US8779157B2, “MGLUR4 allosteric potentiators, compositions, and methods of treating neurological dysfunction” (Vanderbilt University, priority 2009, dated 2014).

The target in the assay is mGluR4 (UniProt Q14833). The assay is described as follows: mGluR4 potentiation assay (fluorescence, Ca2+ or thallium/GIRK readout; EC20 agonist). The class given is cell-based, human / rat. The following applies: half maximal effective concentration for mGluR4 potentiation; species of receptor not given. As for the experimental part: The disclosed compounds and compositions can be evaluated for their ability to act as a potentiator of metabotropic glutamate receptor activity, in particular mGluR4 activity, by any suitable known methodology known in the art. For example, Chinese Hamster Ovary (CHO) cells transfected with human mGluR4 or HEK cells co-transfected with rat mGluR4 and the G-protein regulated Inwardly Rectifying Potassium channel (GIRK) were plated in clear bottom assay plates for assay in a Hamamatsu FDSS Fluorometric Plate Reader. The cells were loaded with either a Ca2+-sensitive fluorescent dye or the thallium responsive dye and the plates were washed and placed into a suitable kinetic plate reader. For human mGluR4 assays, a fluorescence baseline was established for 3-5 seconds, the disclosed compounds were then added to the cells, and the response in cells was measured. Approximately two and a half minutes later, a concentration of mGluR4 orthosteric agonist (e.g. glutamate or L-AP4) eliciting approximately 20% (EC20) of the maximal agonist response was added to the cells, and the response was measured. Two minutes later, a concentration of mGluR4 agonist (e.g. glutamate or L-AP4) eliciting 80% (EC80) of the maximal agonist response was added to the cells, and the response was measured. For rat mGluR4/GIRK experiments, a baseline was established for approximately five seconds, disclosed compounds were added, and either an EC20 or EC80 concentration of agonist was added approximately two and one half minutes later. Potentiation of the agonist response of mGluR4 by the disclosed compounds was observed as an increase in response to the EC20 concentration of agonist in the presence of compound compared to the response to agonist in the absence of compound. Similarly, antagonism of the agonist response of mGluR4 by the disclosed compounds was observed as a decrease in response to the EC80 concentration of agonist in the presence of compound compared to the response to agonist in the absence of compound.
The above described assay operated in two modes. In the first mode, a range of concentrations of the disclosed compounds are added to cells, followed by a single fixed concentration of agonist. If the compound acts as a potentiatior, an EC50 value for potentiation and a maximum extent of potentiation by the compound at this concentration of agonist is determined by non-linear curve fitting. If the compound acts as a noncompetitive antagonist, an IC50 value is determined by non-linear curve fitting. In the second mode, several fixed concentrations of the disclosed compounds are added to various wells on a plate, followed by a range in concentrations of agonist for each concentration of disclosed compound. The EC50 values for the agonist at each concentration of compound are determined by non-linear curve fitting. A decrease in the EC50 value of the agonist with increasing concentrations of the sample compound (a leftward shift of the agonist concentration-response curve) is an indication of the degree of mGluR4 potentiation at a given concentration of the sample compound. A decrease in the maximal response of the agonist with increasing concentrations of the sample compounds, with or without a rightward shift in agonist potency, is an indication of the degree of noncompetitive antagonism at mGluR4. The second mode also indicates whether the sample compounds also affect the maximum response to mGluR4 to agonists.

In the case of `O=C(Nc1ccc(N2C(=O)C3COCCN3C2=S)c(Cl)c1)c1cccs1` (stereo not shown) [Example 1.3.33, N-(3-Chloro-4-(1-oxo-3-thioxodihydro-1H-imidazo[5,1-c][1,4]oxazin-2(3H,8H,8aH)-yl)phenyl)thiophene-2-carboxamide], the EC50 (as a rule, the concentration at which the effect is half-maximal) worked out at 8460 nM. Take `O=C(Nc1ccc(N2C(=O)C3COCCN3C2=O)c(Cl)c1)c1nccs1` (stereo not shown) [Example 1.3.25, N-(3-Chloro-4-(1,3-dioxodihydro-1H-imidazo[5,1-c][1,4]oxazin-2(3H,8H,8aH)-yl)phenyl)thiazole-2-carboxamide]: the EC50 turned out to be 6320 nM. Next, `CC(=O)N1CCN2C(=O)N(c3ccc(NC(=O)c4ccccn4)cc3Cl)C(=O)C2C1` (stereo not shown) [Example 1.3.72, N-(4-(7-acetyl-1,3-dioxohexahydroimidazo[1,5-a]pyrazin-2(3H)-yl)-3-chlorophenyl)picolinamide]: 4510 nM.

Turning to `CC(C)[C@]1(C)NC(=O)N(c2ccc(NC(=O)c3ccccn3)cc2Cl)C1=O` [Example 1.3.59, (S)-N-(3-chloro-4-(4-isopropyl-4-methyl-2,5-dioxoimidazolidin-1-yl)phenyl)picolinamide], the EC50 is 1500 nM.

As for `CC12CCCCN1C(=O)N(c1ccc(NC(=O)c3ccc(Cl)o3)cc1Cl)C2=O` (stereo not shown) [Example 1.3.89, 5-chloro-N-(3-chloro-4-(8a-methyl-1,3-dioxohexahydroimidazo[1,5-a]pyridin-2(3H)-yl)phenyl)furan-2-carboxamide], the EC50 amounted to 4670 nM. Under `O=C(Nc1ccc(N2C(=O)NC3(CCC(c4ccccc4)CC3)C2=O)c(Cl)c1)c1ccccn1` (stereo not shown) [Example 1.3.51, N-(3-chloro-4-(2,4-dioxo-8-phenyl-1,3-diazaspiro[4.5]decan-3-yl)phenyl)picolinamide] stands 2140 nM. Next, `CC12CCCCN1C(=O)N(c1ccc(NC(=O)c3nccs3)cc1Cl)C2=O` (stereo not shown) [Example 1.3.86, N-(3-chloro-4-(8a-methyl-1,3-dioxohexahydroimidazo[1,5-a]pyridin-2(3H)-yl)phenyl)thiazole-2-carboxamide]: 1630 nM. Under `C[C@@]1(Cc2ccccc2)NC(=O)N(c2ccc(NC(=O)c3ccccn3)cc2Cl)C1=O` [Example 1.3.20, (S)-N-(4-(4-benzyl-4-methyl-2,5-dioxoimidazolidin-1-yl)-3-chlorophenyl)picolinamide] stands 604 nM; under `O=C(Nc1ccc(N2C(=O)C3COCCN3C2=S)c(Cl)c1)c1ncc(F)cc1F` (stereo not shown) [Example 1.3.36, N-(3-Chloro-4-(1-oxo-3-thioxodihydro-1H-imidazo[5,1-c][1,4]oxazin-2(3H, 8H,8aH)-yl)phenyl)-3,5-difluoropicolinamide], 1680 nM; under `O=C(Nc1ccc(N2C(=O)C3CCCCN3C2=O)c(Cl)c1)c1ccccn1` (stereo not shown) [Example 1.3.2, N-(3-chloro-4-(1,3-dioxotetrahydroimidazo[1,5-a]pyridin-2(1H,3H,5H)-yl)phenyl)picolinamide], 814 nM. As to `O=C(Nc1ccc(N2C(=O)C3COCCN3C2=S)c(Cl)c1)c1cccc(Cl)n1` (stereo not shown) [Example 1.3.32, 6-Chloro N-(3-chloro-4-(1-oxo-3-thioxodihydro-1H-imidazo[5,1-c][1,4]oxazin-2(3H,8H, 8aH)-yl)phenyl)picolinamide], the EC50 was 1490 nM.

For `CCN1C(=O)N(c2ccc(NC(=O)c3ccccn3)cc2Cl)C(=O)[C@]1(C)Cc1ccccc1` [Example 1.3.65, (S)-N-(4-(4-benzyl-3-ethyl-4-methyl-2,5-dioxoimidazolidin-1-yl)-3-chlorophenyl)picolinamide], the EC50 amounted to 236 nM. Under `CC12CCCCN1C(=S)N(c1ccc(NC(=O)c3cccc(F)n3)cc1Cl)C2=O` (stereo not shown) [Example 1.3.98, N-(3-chloro-4-(8a-methyl-1-oxo-3-thioxohexahydroimidazo[1,5-a]pyridin-2(3H)-yl)phenyl)-6-fluoropicolinamide] stands 470 nM; under `CC12CCCCN1C(=S)N(c1ccc(NC(=O)c3cnccn3)cc1Cl)C2=O` (stereo not shown) [Example 1.3.92, N-(3-chloro-4-(8a-methyl-1-oxo-3-thioxohexahydroimidazo[1,5-a]pyridin-2(3H)-yl)phenyl)pyrazine-2-carboxamide], 1910 nM; under `O=C(Nc1ccc(N2C(=O)C3CSCCN3C2=O)c(Cl)c1)c1ccccn1` (stereo not shown) [Example 1.3.40, N-(3-chloro-4-(1,3-dioxodihydro-1H-imidazo[5,1-c][1,4]thiazin-2(3H,8H,8aH)-yl)phenyl)picolinamide], 403 nM.

In the case of `O=C(Nc1ccc(N2C(=O)C3COCCN3C2=S)c(Cl)c1)c1ccccn1` (stereo not shown) [Example 1.3.30, N-(3-Chloro-4-(1-oxo-3-thioxodihydro-1H-imidazo[5,1-c][1,4]oxazin-2(3H, 8H,8aH)-yl)phenyl)picolinamide], the EC50 is 1470 nM. Under `CC12CCCCN1C(=O)N(c1ccc(NC(=O)c3ncc(F)cc3F)cc1Cl)C2=O` (stereo not shown) [Example 1.3.88, N-(3-chloro-4-(8a-methyl-1,3-dioxohexahydroimidazo[1,5-a]pyridin-2(3H)-yl)phenyl)-3,5-difluoropicolinamide] stands 1100 nM.

On to `O=C(Nc1ccc(N2C(=O)C3CCCCN3C2=O)cc1)c1ccccn1` (stereo not shown) [Example 1.3.3, N-(4-(1,3-dioxotetrahydroimidazo[1,5-a]pyridin-2(1H,3H,5H)-yl)phenyl)picolinamide], for which the concentration for a half-maximal effect (EC50) came out at 3120 nM. Next, `O=C(Nc1ccc(N2C(=O)C3COCCN3C2=O)c(Cl)c1)c1ncc(F)cc1F` (stereo not shown) [Example 1.3.27, N-(3-Chloro-4-(1,3-dioxodihydro-1H-imidazo[5,1-c][1,4]oxazin-2(3H,8H,8aH)-yl)phenyl)-3,5-difluoropicolinamide]: 2930 nM; `O=C(Nc1ccc(N2C(=O)NC(C3CCCCC3)C2=O)c(Cl)c1)c1ccccn1` (stereo not shown) [Example 1.3.70, N-(3-chloro-4-(4-cyclohexyl-2,5-dioxoimidazolidin-1-yl)phenyl)picolinamide]: 743 nM; `C[C@]1(Cc2ccccc2)NC(=O)N(c2ccc(NC(=O)c3ccccn3)cc2Cl)C1=O` [Example 1.3.19, (R)-N-(4-(4-Benzyl-4-methyl-2,5-dioxoimidazolidin-1-yl)-3-chlorophenyl)picolinamide]: 840 nM. On to `O=C(Nc1ccc(N2C(=O)C3CCCCN3C2=S)c(Cl)c1)c1ccsc1` (stereo not shown) [Example 1.3.78, N-(3-chloro-4-(1-oxo-3-thioxohexahydroimidazo[1,5-a]pyridin-2(3H)-yl)phenyl)thiophene-3-carboxamide], for which the EC50 amounted to 1790 nM. With `O=C(Nc1ccc(N2C(=O)C3COCCN3C2=S)c(Cl)c1)c1cscn1` (stereo not shown) [Example 1.3.35, N-(3-Chloro-4-(1-oxo-3-thioxodihydro-1H-imidazo[5,1-c][1,4]oxazin-2(3H,8H,8aH)-yl)phenyl)thiazole-4-carboxamide], the EC50 stood at 1490 nM.

On to `CC12CCCCN1C(=O)N(c1ccc(NC(=O)c3cccc(F)n3)cc1Cl)C2=O` (stereo not shown) [Example 1.3.90, N-(3-chloro-4-(8a-methyl-1,3-dioxohexahydroimidazo[1,5-a]pyridin-2(3H)-yl)phenyl)-6-fluoropicolinamide], for which the EC50 is 1120 nM. On to `O=C(Nc1ccc(N2C(=O)C3CSCCN3C2=O)c(Cl)c1)c1cscn1` (stereo not shown) [Example 1.3.43, N-(3-chloro-4-(1,3-dioxodihydro-1H-imidazo[5,1-c][1,4]thiazin-2(3H,8H,8aH)-yl)phenyl)thiazole-4-carboxamide], for which the half-maximal effective concentration (EC50) was determined as 3760 nM.
